Source: patent US6441030B1, “3-phenyl-pyrones” (Bayer Aktiengesellschaft, priority 1998, dated 2002)

Legend:
Assay type in all cases: in vivo
[1] = tested on: larvae of the mustard beetle (Phaedon cochleariae); assay: Phaedon larvae test (Example C); details: active compound concentration of 0.1% in the preparation; cabbage leaves (Brassica oleracea) dipped
Experimental: Phaedon Larvae Test Solvent: 7 parts by weight of dimethylformamide Emulsifier: 1 part by weight of alkylaryl polyglycol ether […] Cabbage leaves (Brassica oleracea) are treated by being dipped into the preparation of active compound of the desired concentration and are populated with larvae of the mustard beetle (Phaedon cochleariae) while the leaves are still moist.

[2] = tested on: Aphis fabae; assay: Critical concentration test/root-systemic action, Aphis fabae (Example G); details: active compound concentration of 1.25 ppm in the soil; broad beans; populated after 7 days, evaluated after a further 7 days
Experimental: (§1) Critical Concentration Test/Root-systemic Action Test insect: Aphis fabae Solvent: 4 parts by weight of dimethylformamide Emulsifier: 1 part by weight of alkylaryl polyglycol ether To prepare a suitable preparation of active compound, 1 part by weight of active compound is mixed with the stated amount of solvent, the stated amount of emulsifier is added and the concentrate is diluted with water to the desired concentration. The preparation of active compound is mixed intimately with the soil. The concentration of the active compound in the preparation is virtually immaterial, only the amount by weight of active compound per volume unit of soil, which is stated in ppm (=mg/l), being decisive. The treated soil is filled into 250 ml pots and pre-germinated broad beans are planted in these. Thus, the active compound can be taken up by the plant roots from the soil and then transported into the leaves. To assess the root-systemic effect, the leaves are populated with the abovementioned test animals after 7 days. After a further 7 days, evaluation is carried out by counting or estimating the dead animals. The root-systemic action of the active compound is derived from the number of animals killed. It is 100% if all test animals have been killed and 0% when the number of test insects that are still alive is the same as for the untreated control.

[3] = tested on: Myzus persicae; assay: Critical concentration test/root-systemic action, Myzus persicae (Example H); details: active compound concentration of 1.25 ppm in the soil; broad beans; populated after 7 days, evaluated after a further 7 days
Experimental: as §1, with “Myzus persicae” for “Aphis fabae”, “[…],” for “(=mg/l),”

Cc1cc(Cl)ccc1-c1c(O)c(C)c(-c2ccccn2)oc1=O [Example 1, 3-(2-methyl-4-chloro-phenyl)-4-hydroxy-5-methyl-6-(pyrid-2-yl)-pyrone]
100 per cent: efficacy (kill in %) [1] | efficacy (root-systemic action) [2] | efficacy (root-systemic action) [3]
